Results from patent US9302967B2, “Substituted cathechols as inhibitors of IL-4 and IL-5 for the treatment of bronchial asthma” (Council of Scientific & Industrial Research, priority 2011, dated 2016).
pIC50: −log10 of the molar value.

Assays:
IL-4 = assay: PHA-stimulated human PBMC, IL-4 in supernatant by Cytometric Bead Array; type: cell-based; details: PHA 10 μg/ml, read-out: IC50 inhibitory activity, stimulation-induced IL-4
Procedure: (§1) Normal human peripheral blood mononuclear cells (PBMC) were stimulated with phytohemagglutinin (PHA) 10 μg/ml in the presence and absence of varying concentrations of compounds of formula I and II. Culture supernatants were harvested and IIL-4 and IL-5 cytokines were quantitated by Cytometric Bead Array (CBA™) kit (Becton Dickinson, USA) following manufacturers instructions using a Flow Cytometer (BD LSR, Becton Dickinson) and CBA™ analysis software (Becton Dickinson).

IL-5 = assay: PHA-stimulated human PBMC, IL-5 in supernatant by Cytometric Bead Array; type: cell-based; details: Homo sapiens, PHA 10 μg/ml, read-out: IC50 inhibitory activity, stimulation-induced IL-5
Procedure: as §1

pIC50 (IL-4) | pIC50 (IL-5) | melting point [°C] | SMILES
5.40 | 5.40 | – | C=CCc1ccc(OC(C)=O)c(OC(C)=O)c1 [Compound 7, 4-allyl-1,2-phenylene diacetate]
4.52 | 4.46 | 58 to 60 | C=CCc1cccc(OC(C)=O)c1OC(C)=O [Compound 19, 3-allyl-1,2-phenylene diacetate]
4.52 | 4.52 | – | C=CCc1cccc(O)c1O [Compound 16, 3-allyl-benzene-1,2-diol]
